The values that follow come from ChEMBL document CHEMBL1201862, “PubChem BioAssay data set” (2004).

One may read the IC50 as the concentration needed to halve the response being measured. As usually defined, the EC50 is the midpoint of the concentration-response curve. For orientation: CC50 means the concentration that lowers cell viability or growth by half. For orientation: AC50 means the concentration giving half of the maximal activity seen. The Ki is a dissociation constant, usually derived from enzyme kinetics or from competition with a known ligand.

The source made the active and inactive calls.

Experiment [1] addresses T1, SUMO-activating enzyme (Homo sapiens, UniProt Q9UBT2). As to the kind of experiment: blockers of UBC9-mediated SUMO conjugation – biochemical, AlphaScreen, SUMOylation inhibitor project, confirmation (AID 2018). In kind it is functional.
The target in experiment [2] is T1, SUMO-activating enzyme. Briefly: blockers of SAE1/SAE2–UBC9 SUMO transfer – biochemical, HTRF, uHTS, primary screen (AID 2006). In kind it is protein-complex assay. On the technique in general: In TR-FRET formats the signal depends on donor and acceptor labels being close together.
In experiment [3] the target is Induced myeloid leukemia cell differentiation protein Mcl-1 (Homo sapiens, UniProt Q07820). In kind it is functional.
Experiment [4] concerns the target 26S proteasome non-ATPase regulatory subunit 14 (Homo sapiens, UniProt O00487). As to the kind of experiment: inhibition of proteasome subunit RPN11 – biochemical, fluorescence polarization, uHTS hits, confirmation (AID 602368). Type of experiment: functional. In general terms: In fluorescence polarisation assays a small probe gives low polarisation when free and higher when bound to something large.

The target in experiment [5] is 72 kDa type IV collagenase (Homo sapiens, UniProt P08253). Briefly: Dose Response validation of uHTS RPN11 inhibitor hits using a MMP-2 Fluorescence assay. Type of experiment: functional.
For the next experiment, the target named is Prothrombin (Bos taurus, UniProt P00735). Briefly: thrombin protease inhibitors – biochemical, fluorescence polarization, uHTS hits, dose response (AID 602369). In kind it is functional.
Experiment [6] addresses Intestinal-type alkaline phosphatase (Homo sapiens, UniProt P09923). Briefly: Dose Response confirmation of uHTS hits from a small molecule inhibitors of human intestinal alkaline phosphatase via a luminescent assay. [Related pubchem assays (depositor defined):AID2544, AID2574]. In kind it is functional.
Experiment [7] addresses T2, Heat shock 70 kDa protein 1A (Homo sapiens, UniProt P0DMV8). As to the kind of experiment: small-molecule inhibition of Hsp70 – biochemical, TR-FRET (AID 786).
Experiment [8] addresses T2, Heat shock 70 kDa protein 1A. Briefly: small molecules displacing fluorescent ligand from Hsp70 – biochemical, fluorescence polarization, primary screen (AID 583).
In a further experiment the target is Large T antigen (Simian virus 40, UniProt P03070). In kind it is functional, Betapolyomavirus macacae.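 Also: Confirmatory-stage PubChem screen for compounds that inhibit SV40 T antigen.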
Experiment [9] has as its target Neurotensin receptor type 1 (Homo sapiens, UniProt P30989). In kind it is functional.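 Also: Image-based confirmatory dose-response assay measuring agonist activity at NTR1; NTR1-expressing U2OS osteosarcoma cells imaged for beta-arrestin GFP spot formation; agonist potency where compounds increase beta-arrestin recruitment.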
The target in the next experiment is Albumin (Bos taurus, UniProt P02769). Briefly: Counterscreen for inhibitors of T-cell receptor (TCR)-CD3 interaction: Fluorescence-based biochemical high throughput dose response assay to identify inhibitors of T-cell receptor (TCR)-CD3 interaction using a TAMRA-labeled BSA probe. Type of experiment: functional. In general terms: Counterscreens check selectivity or assay interference.

The nature of experiment [10]: viability loss in THP-1 monocytes – THP-1 cells, cytotoxicity control for Vif-APOBEC3G degradation inhibitor project, dose response (AID 1117359). Type of experiment: functional. As to conditions: THP-1.
Experiment [11] is described as follows: HEK-293T cell viability reduction – luminescence, B-cell screen hits, cytotoxicity control for BCR NF-kB inhibitor project, dose response (AID 489021).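 Also: HEK-293T cells carrying an NF-kB luciferase reporter; cells exposed to compound for about 14 hours before viability readout.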 Type of experiment: functional, cell-based.
Experiment [12] has as its target T3, Calpain-2 catalytic subunit (Sus scrofa, UniProt P43367).
T3 sequence (P43367 whole entry): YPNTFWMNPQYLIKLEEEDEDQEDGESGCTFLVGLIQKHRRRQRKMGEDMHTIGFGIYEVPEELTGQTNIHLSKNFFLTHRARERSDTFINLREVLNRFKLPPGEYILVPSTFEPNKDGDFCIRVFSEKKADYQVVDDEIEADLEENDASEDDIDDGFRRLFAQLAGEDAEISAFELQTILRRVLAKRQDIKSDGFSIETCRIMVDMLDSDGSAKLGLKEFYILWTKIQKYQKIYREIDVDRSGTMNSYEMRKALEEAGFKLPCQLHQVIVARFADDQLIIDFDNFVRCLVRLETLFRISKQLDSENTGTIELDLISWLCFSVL
As to the kind of experiment: m-calpain protease blockers, concentration series – biochemical, fluorogenic peptide substrate, dose response (AID 1420). Type of experiment: functional.

Experiment [13] deals with Dual specificity tyrosine-phosphorylation-regulated kinase 1A (Rattus norvegicus, UniProt Q63470). Type of experiment: biochemical, Homo sapiens.
A short description of experiment [14]: NIH-3T3 fibroblast cytotoxicity, dose response, cytotoxicity control, cell-based, fluorescence, Alamar Blue, secondary assay (AID 2327).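 Also: NIH-3T3 mouse fibroblasts cultured with fluconazole at 8 µg/mL.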 In kind it is functional.
Experiment [15] has as its target Peroxisome proliferator-activated receptor gamma/Nuclear receptor coactivator 1 (Homo sapiens, UniProt P37231). Briefly: TR-FRET dose response biochemical High Throughput Screening assay for agonists of the steroid receptor coactivator 1 (SRC-1) recruitment by the peroxisome proliferator-activated receptor gamma (PPAR gamma): non-selective agonists. [Related pubchem assays (depositor defined):AID1300, AID1808, AID504735, AID631]. In kind it is protein assay.

Experiment [16] has as its target Peroxisome proliferator-activated receptor gamma/Nuclear receptor coactivator 3 (Homo sapiens, UniProt P37231). Briefly: TR-FRET dose response biochemical High Throughput Screening assay for agonists of the steroid receptor coactivator 3 (SRC-3) recruitment by the peroxisome proliferator-activated receptor gamma (PPAR gamma): non-selective agonists. [Related pubchem assays: 1301 (Confirmation screen.), 1048 (Primary screen.)]. Type of experiment: functional.

Experiment [17] can be described thus: fluconazole-exposed Candida albicans growth modulators – fluorescence, retest, confirmation (AID 2467). In kind it is functional, cell-based.
Another experiment concerns the target NS3 (Hepatitis C virus, UniProt A3EZJ3). As to the kind of experiment: PubChem AID 2173. Details: species or system Hepacivirus hominis.
For experiment [18], the target named is T4, Serine/threonine-protein phosphatase (Candida dubliniensis (strain CD36 / CBS 7987 / NCPF 3949 / NRRLY-17841) (Yeast), UniProt B9W6M3).
T4 sequence (B9W6M3 whole entry): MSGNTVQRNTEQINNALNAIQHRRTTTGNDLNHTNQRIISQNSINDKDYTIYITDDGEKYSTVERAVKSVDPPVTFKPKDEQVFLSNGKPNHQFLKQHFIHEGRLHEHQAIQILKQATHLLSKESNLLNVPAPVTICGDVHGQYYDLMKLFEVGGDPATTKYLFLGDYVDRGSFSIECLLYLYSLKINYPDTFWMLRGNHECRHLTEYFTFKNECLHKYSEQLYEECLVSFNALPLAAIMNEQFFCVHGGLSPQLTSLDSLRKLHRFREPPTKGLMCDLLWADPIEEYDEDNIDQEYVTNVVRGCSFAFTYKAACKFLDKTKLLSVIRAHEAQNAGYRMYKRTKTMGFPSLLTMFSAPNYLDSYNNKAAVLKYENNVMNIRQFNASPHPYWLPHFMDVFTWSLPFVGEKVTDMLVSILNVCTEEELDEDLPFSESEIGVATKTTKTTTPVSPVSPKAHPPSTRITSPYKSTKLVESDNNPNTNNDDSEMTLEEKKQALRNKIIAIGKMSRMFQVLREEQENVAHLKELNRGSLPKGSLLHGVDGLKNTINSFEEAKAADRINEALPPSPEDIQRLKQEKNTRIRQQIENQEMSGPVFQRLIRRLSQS
As to the kind of experiment: blockers of CaCl2-induced CDRE-lacZ signaling – S. cerevisiae, luminescence, secondary, dose response (AID 2388).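 Also: yeast reporter cells carrying a calcineurin-responsive lacZ construct stimulated with calcium chloride; luminescent beta-galactosidase reporter signal in whole cells rather than isolated phosphatase activity; potency for inhibition where a drop in reporter signal means calcineurin blockade.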 Type of experiment: functional, cell-based.

Experiment [19] concerns the target Peroxisome proliferator-activated receptor gamma/Nuclear receptor coactivator 2 (Homo sapiens, UniProt P37231). Briefly: TR-FRET dose response biochemical High Throughput Screening assay for agonists of the steroid receptor coactivator 2 (SRC-2) recruitment by the peroxisome proliferator-activated receptor gamma (PPAR gamma): non-selective agonists. [Related pubchem assays: 1297, 1032 ]. Type of experiment: functional.

Experiment [20] has as its target ATP-dependent molecular chaperone HSP82 (Candida albicans (strain WO-1) (Yeast), UniProt C4YTQ8). Briefly: steroid-induced GRE reporter decrease in yeast – S. cerevisiae, luminescence, Hsp90 inhibitor project, dose response (AID 2400).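 Also: beta-galactosidase luminescence from glucocorticoid response element reporter as proxy for Hsp90 function; inhibitor potency where signal loss means Hsp90 inhibition.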 In kind it is functional, cell-based.
For experiment [21], the target named is T5, Long-chain-fatty-acid--AMP ligase FadD28 (Mycobacterium tuberculosis, UniProt P9WQ59).
T5 sequence (P9WQ59 whole entry): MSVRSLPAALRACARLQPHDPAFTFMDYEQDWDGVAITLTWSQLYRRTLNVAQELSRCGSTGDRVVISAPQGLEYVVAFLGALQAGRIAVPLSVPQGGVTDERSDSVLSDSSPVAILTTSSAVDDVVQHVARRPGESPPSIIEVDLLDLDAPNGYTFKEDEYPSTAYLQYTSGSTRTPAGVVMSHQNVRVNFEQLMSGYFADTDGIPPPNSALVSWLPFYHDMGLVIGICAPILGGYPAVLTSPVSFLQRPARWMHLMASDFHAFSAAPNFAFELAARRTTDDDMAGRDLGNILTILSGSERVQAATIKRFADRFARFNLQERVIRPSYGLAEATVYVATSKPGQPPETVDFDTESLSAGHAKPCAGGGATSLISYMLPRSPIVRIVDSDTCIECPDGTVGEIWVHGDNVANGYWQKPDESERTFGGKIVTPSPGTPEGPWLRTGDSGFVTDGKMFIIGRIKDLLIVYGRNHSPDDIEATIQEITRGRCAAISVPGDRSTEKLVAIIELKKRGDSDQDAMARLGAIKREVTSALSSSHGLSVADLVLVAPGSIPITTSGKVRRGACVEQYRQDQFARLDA
Briefly: Fluorescence polarization aasay to screen for inhibitors that compete for the binding of FadD28 to a bisubstrate Measured in Biochemical System Using Plate Reader - 2147-01_Inhibitor_Dose_CherryPick_Activity. In kind it is functional, Mycobacterium tuberculosis H37Rv.

In a further experiment the target is T6, fMet-Leu-Phe receptor (Homo sapiens, UniProt P21462).
T6 sequence (P21462 whole entry): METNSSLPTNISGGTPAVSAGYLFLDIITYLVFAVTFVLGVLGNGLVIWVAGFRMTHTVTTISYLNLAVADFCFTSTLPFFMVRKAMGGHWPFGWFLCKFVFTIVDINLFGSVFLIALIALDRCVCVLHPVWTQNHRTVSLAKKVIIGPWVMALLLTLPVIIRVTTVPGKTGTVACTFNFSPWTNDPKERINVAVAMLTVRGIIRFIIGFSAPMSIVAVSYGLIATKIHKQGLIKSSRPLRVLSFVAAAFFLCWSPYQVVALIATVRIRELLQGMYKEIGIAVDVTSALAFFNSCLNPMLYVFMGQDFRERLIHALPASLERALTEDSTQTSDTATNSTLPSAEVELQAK
Briefly: formyl peptide receptor binders – dose response (AID 519). Type of experiment: functional.

T1 sequence (Q9UBE0 whole entry): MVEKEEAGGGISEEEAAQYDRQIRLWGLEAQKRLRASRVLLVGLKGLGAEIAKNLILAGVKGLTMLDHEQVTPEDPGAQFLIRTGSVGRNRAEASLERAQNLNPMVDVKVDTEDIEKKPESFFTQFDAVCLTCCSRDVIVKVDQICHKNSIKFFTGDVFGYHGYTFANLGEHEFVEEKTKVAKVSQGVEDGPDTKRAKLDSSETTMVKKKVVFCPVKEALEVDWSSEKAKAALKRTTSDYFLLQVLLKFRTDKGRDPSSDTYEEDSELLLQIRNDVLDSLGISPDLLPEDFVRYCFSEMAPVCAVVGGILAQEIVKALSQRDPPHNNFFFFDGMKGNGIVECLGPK
T1 sequence (Q9UBT2 whole entry): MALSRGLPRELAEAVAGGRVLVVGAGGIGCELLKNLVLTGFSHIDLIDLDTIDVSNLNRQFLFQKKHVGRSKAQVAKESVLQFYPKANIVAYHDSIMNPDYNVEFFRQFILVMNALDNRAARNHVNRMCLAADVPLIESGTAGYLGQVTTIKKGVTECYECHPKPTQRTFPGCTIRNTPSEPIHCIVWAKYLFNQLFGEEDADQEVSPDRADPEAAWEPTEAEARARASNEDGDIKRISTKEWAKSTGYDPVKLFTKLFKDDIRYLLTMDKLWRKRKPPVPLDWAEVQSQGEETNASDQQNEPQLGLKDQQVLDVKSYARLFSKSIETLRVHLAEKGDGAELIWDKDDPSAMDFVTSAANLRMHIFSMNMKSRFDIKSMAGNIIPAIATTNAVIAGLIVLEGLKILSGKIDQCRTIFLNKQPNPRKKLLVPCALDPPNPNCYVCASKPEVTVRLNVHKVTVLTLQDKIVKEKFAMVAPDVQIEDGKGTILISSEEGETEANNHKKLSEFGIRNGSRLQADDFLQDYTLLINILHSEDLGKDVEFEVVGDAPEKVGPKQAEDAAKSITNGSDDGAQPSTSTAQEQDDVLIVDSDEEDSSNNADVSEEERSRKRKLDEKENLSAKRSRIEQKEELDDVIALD
T2 sequence (P0DMV8 whole entry): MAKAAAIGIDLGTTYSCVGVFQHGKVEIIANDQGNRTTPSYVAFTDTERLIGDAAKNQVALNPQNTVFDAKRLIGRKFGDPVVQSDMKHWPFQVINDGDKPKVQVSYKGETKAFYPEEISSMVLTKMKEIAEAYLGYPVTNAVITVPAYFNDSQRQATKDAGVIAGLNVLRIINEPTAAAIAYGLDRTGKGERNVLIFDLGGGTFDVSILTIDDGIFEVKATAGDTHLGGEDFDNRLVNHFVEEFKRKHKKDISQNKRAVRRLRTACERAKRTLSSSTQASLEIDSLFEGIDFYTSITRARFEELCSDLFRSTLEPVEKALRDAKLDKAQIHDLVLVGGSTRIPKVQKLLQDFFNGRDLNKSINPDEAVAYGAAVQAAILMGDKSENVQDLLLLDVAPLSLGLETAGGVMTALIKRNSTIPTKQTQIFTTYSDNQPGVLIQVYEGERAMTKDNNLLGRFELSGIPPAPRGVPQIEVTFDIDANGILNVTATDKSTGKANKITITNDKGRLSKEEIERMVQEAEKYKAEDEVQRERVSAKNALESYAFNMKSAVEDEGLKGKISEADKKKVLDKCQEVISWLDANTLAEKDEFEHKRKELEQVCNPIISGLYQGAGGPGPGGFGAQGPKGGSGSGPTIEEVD
Chain of Induced myeloid leukemia cell differentiation protein Mcl-1 (Q07820 whole entry): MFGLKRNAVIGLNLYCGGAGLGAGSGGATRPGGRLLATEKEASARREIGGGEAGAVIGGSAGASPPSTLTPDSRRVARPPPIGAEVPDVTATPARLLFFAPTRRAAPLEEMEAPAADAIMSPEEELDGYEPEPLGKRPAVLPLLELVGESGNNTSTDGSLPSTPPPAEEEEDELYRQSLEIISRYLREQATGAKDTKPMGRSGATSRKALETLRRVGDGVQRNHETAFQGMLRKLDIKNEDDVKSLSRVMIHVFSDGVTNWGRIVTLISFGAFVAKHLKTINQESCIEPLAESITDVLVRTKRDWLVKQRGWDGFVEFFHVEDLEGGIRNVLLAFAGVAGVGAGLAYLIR
Chain of Neurotensin receptor type 1 (P30989 whole entry): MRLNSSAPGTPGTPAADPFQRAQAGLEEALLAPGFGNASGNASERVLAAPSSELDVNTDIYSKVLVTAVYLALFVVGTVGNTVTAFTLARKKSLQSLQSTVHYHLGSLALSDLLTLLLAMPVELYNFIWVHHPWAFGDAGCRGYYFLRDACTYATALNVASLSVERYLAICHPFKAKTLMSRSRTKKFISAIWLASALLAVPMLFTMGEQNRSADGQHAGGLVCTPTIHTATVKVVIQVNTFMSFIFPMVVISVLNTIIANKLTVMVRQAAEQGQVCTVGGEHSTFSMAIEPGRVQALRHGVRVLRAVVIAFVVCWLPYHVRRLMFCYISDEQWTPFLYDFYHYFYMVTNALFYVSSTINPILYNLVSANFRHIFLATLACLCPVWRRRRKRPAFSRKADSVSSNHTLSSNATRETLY
Chain of Albumin (P02769 whole entry): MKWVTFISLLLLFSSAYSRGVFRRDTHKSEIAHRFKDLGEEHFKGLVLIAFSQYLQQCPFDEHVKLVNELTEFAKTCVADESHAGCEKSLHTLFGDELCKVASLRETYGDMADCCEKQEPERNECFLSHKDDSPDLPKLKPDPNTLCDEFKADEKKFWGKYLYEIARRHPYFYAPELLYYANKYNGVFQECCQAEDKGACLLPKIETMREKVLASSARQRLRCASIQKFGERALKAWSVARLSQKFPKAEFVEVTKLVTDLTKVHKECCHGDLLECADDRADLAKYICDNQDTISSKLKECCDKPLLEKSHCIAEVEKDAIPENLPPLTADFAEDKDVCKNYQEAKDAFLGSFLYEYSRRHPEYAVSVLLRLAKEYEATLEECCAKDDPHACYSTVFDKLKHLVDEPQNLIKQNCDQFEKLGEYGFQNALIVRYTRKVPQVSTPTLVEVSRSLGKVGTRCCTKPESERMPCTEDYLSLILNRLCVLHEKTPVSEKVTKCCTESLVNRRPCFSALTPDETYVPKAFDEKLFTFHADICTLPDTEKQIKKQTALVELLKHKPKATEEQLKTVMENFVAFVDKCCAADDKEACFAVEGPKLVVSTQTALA
Chain of Large T antigen (P03070 whole entry): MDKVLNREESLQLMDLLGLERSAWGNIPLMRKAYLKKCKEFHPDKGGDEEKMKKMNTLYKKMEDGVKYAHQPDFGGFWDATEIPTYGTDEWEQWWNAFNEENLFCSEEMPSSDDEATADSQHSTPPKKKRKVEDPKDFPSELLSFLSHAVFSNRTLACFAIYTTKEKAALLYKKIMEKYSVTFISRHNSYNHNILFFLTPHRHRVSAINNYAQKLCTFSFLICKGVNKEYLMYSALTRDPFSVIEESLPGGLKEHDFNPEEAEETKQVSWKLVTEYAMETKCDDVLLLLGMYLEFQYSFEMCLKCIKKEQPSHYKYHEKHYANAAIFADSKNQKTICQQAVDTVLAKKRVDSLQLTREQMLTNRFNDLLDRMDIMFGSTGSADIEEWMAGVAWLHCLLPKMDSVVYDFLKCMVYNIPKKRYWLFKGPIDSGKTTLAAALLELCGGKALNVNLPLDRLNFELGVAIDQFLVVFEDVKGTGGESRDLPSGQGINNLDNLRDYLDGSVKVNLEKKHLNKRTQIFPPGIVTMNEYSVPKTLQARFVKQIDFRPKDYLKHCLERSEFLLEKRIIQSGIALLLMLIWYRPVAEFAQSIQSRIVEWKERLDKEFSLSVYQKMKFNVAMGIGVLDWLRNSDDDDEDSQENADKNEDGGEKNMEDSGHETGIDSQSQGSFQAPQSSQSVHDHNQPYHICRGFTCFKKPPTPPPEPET
Chain of ATP-dependent molecular chaperone HSP82 (C4YTQ8 whole entry): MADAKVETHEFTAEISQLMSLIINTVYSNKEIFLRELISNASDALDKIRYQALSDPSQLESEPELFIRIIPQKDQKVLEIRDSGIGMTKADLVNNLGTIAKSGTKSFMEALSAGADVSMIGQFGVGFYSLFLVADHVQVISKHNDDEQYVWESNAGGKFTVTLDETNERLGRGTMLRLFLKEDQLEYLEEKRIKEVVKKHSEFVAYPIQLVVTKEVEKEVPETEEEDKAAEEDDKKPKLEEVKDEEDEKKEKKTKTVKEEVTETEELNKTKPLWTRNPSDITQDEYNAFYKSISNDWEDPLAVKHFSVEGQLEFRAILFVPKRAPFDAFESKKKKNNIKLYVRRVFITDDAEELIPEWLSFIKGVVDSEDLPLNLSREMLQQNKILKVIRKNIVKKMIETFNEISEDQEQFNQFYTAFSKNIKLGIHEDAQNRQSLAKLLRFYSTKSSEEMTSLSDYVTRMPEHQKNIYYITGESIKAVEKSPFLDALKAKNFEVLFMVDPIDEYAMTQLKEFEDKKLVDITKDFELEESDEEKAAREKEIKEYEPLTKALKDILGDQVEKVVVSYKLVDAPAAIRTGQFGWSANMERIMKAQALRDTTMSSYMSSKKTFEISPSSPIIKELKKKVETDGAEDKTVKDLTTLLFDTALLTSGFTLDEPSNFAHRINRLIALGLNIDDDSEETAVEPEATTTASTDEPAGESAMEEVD
Chain of Intestinal-type alkaline phosphatase (P09923 whole entry): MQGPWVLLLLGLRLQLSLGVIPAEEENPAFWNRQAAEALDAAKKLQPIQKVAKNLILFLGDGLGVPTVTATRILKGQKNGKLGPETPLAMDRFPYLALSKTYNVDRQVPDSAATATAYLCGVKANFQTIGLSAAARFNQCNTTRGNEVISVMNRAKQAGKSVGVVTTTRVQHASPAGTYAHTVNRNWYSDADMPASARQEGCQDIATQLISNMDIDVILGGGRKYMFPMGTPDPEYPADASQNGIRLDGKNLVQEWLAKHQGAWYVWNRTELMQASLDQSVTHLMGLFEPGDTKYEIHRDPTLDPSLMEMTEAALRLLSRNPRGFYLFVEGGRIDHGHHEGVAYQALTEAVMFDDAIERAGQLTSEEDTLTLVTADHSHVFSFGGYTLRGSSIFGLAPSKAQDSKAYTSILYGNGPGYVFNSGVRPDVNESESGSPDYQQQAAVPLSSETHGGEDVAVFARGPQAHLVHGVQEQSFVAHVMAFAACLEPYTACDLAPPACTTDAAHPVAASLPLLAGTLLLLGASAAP

In the case of `Cc1ccc(CSc2nnc(SCC(=O)N/N=C/c3c[nH]c4ccccc34)s2)cc1`, the IC50 is 1.38 µM (active) at SUMO-activating enzyme [1]; 17.6 µM (active) on SUMO-activating enzyme [2]; 3.91 µM (active) in experiment [3]; 6.88 µM (active) in experiment [4]; > 100 µM (inactive) in experiment [5]; 55.4 µM (active) at Prothrombin.
As for `NC(=O)c1ccc(NC(=O)C2CCCC2)cc1`, the IC50 in [6] was > 100 µM (inactive).
As for `CCOc1ccccc1N1Cc2cc(C)c(C)cc2C1`, the IC50 in experiment [7] and in [8] was > 100 µM (not active) throughout.
For `O=c1cc(-c2ccc(O)cc2)oc2cc(O)c(C3OC(CO)C(O)C(O)C3O)c(O)c12` (stereo not given), the concentration for half-maximal inhibition (IC50) at Large T antigen is 21.4 µM (active); on Albumin, > 94.1 µM (inactive). In experiment [9], the EC50 was 2.71 µM (active). Besides, the CC50 in experiment [10] is > 40 µM (active).
In the case of `COc1cc(C[C@@H]2C(=O)OC[C@H]2Cc2ccc(OC)c(OC)c2)ccc1O`, the IC50 in [11] was > 80 µM (inactive).
As to `C=CCOC(=O)C(C#N)c1nc2ccccc2nc1N1CCCC1` (stereo not given), the IC50 in experiment [7] and in experiment [8] was > 100 µM (not active) in each case.
Consider `O=C(Nc1ccc(F)cc1)C(=O)c1c(O)[nH]c2ccc([N+](=O)[O-])cc12`, for which the IC50 is 9.48 µM (active) on SUMO-activating enzyme [1], 24 µM (active) at SUMO-activating enzyme [2] and > 50 µM (not active) in experiment [12]. Besides, the AC50 in experiment [13] is 10.4 µM (active).
On to `COc1ccc(OC)c(C2C(C(=O)c3cc4ccccc4o3)=C(O)C(=O)N2c2cc(C)on2)c1` (stereo not given), for which the EC50 was > 150 µM (inactive) in [14]; > 79.4 µM (inactive) in experiment [15]; > 79.4 µM (not active) in experiment [16]; 0.046 µM (active) in [17]; > 180 µM (inactive) in experiment [18]; 36 µM (not active) in [19]. For the same compound, the 50% effective concentration (EC50) in experiment [20] was 21.6 µM (active). Moreover, the IC50 at NS3 is 5.29 µM (active). Further, in [21], the AC50 is > 100 µM (inactive). Also, the Ki on fMet-Leu-Phe receptor is 36.6 µM (inactive).
